In article PMC6413231, “o-Vanillin Derived Schiff Bases and Their Organotin(IV) Compounds: Synthesis, Structural Characterisation, In-Silico Studies and Cytotoxicity” (International Journal of Molecular Sciences, 2019):

Experiments:
[1] = system: EJ-28 (muscle invasive bladder) cancer cells; experiment: MTT cytotoxicity assay, EJ-28; format: cell-based, human; conditions: EJ-28 cells, 72 h, ± standard error, read-out: Growth Inhibition Concentration, GI50
Method: (§1) The Schiff bases and their organotin(IV) compounds were screened for in vitro cytotoxicity against a panel of 12 cancer cell lines: EJ-28 (muscle invasive bladder), RT-112 (minimum-invasive bladder), HT29 (colon), U87 and SJ-G2 (glioblastoma), MCF-7 (breast), A2780 (ovarian), H460 (lung), A431 (skin), DU145 (prostate), BE2-C (neuroblastoma), MIA (pancreatic) and one normal breast cell line (MCF-10A) using the MTT metabolic assay (Figure 6). After 72 h of incubation, a dose-dependent […] effect towards the cancer cell lines was measured at very low micromolar (µM) concentrations of the compounds. The growth inhibition concentration of the Schiff bases and their organotin(IV) compounds required to inhibit 50% cell proliferation relative to the cells that were treated with DMSO (control) are given in Table 2. The stability of these compounds was assessed in DMSO as well as in a mixture of DMSO-H2O. The absorbance obtained from UV-vis spectroscopy analysis was monitored for 72 h, and an unchanged pattern in the spectra was indicative that the compounds were stable in both the solvent systems tested.
(§2) The inhibitory effect of the synthesised compounds on the growth of bladder (EJ-28 and RT-112) cancer cells was evaluated by MTT assay. […] RT-112 and EJ-28, human bladder cancer cell lines used in this study (ATCC, Manassas, VA, USA) were cultured in RPMI-1640 (High glucose) medium supplemented with 10% fetal bovine serum containing 1% penicillin. The cells were cultured at 37 °C in a humidified atmosphere of 5% CO2 in air. Cells were seeded in 96-well plates at 6000 cells per well for 24 h, then they were treated with different concentrations of compounds for 72 h. The medium was subsequently removed and the wells were washed with 200 µL of phosphate buffer saline. Aliquots of 20 µL of 3-(4,5-dimethylthiazol-2-yl)-2,5-diphenyltetrazolium bromide (MTT) was added to each well and incubated for 4 h at 37 °C. Aliquots of 200 µL of media was then removed from each well and 200 µL of DMSO was added. Optical density (OD) was measured using an ELISA plate reader at 570 nm. Control wells (100% viability), containing media and DMSO, were included in all the experiments. All data points represented an average of triplicate assays. Cytotoxicity was expressed as CD50, i.e., the concentration that reduced the absorbance of treated cells by 50% with reference to the control (untreated cells).

[2] = system: RT-112 (minimum-invasive bladder) cancer cells; experiment: MTT cytotoxicity assay, RT-112; format: cell-based, human; conditions: RT-112 cells, 72 h, ± standard error, read-out: Growth Inhibition Concentration, GI50
Method: as §1, §2

[3] = system: A2780 (ovarian) cancer cells; experiment: MTT growth inhibition assay, A2780; format: cell-based; conditions: 72 h, ± standard error, read-out: Growth Inhibition Concentration, GI50
Method: as §1
(§3) For HT29 (colon), U87 and SJ-G2 (glioblastoma), MCF-7 (breast), A2780 (ovarian), H460 (lung), A431 (skin), Du145 (prostate), BE2-C (neuroblastoma), MIA (pancreas) cell lines and one normal breast cell line, MCF-10A (normal breast), the MTT assays were performed using the following method:
(§4) Stock solutions were prepared as follows and stored at −20 °C: Trial compounds were stored as 10 mM solutions in DMSO. All cell lines were cultured in a humidified atmosphere 5% CO2 at 37 °C. The cancer cell lines were maintained in Dulbecco’s modified Eagle’s medium (DMEM) (Trace Biosciences) supplemented with 10% foetal bovine serum, 10 mM sodium bicarbonate, penicillin (100 IU/mL), streptomycin (100 μg/mL) and glutamine (4 mM). The normal cell line, MCF-10A was cultured in DMEM:F12 (1:1) cell culture media, 5% heat inactivated horse serum, supplemented with penicillin (50 IU/mL), streptomycin (50 μg/mL), 20mM Hepes, L-glutamine (2 mM), epidermal growth factor (20 ng/mL), hydrocortisone (500 ng/mL), cholera toxin (100 ng/mL) and insulin (10 μg/mL).
(§5) Cells in logarithmic growth were transferred to 96-well plates. Cytotoxicity was determined by plating cells in duplicate in 100 μL medium at a density of 2500–4000 cells/well. On day 0 (24 h after plating), when the cells were in logarithmic growth, 100 μL medium, with or without the test agent, was added to each well. After 72 h drug exposure, growth inhibitory effects were evaluated using the MTT (3-[4,5-dimethylthiazol-2-yl]-2,5-diphenyltetrazolium bromide) assay and absorbance read at 540 nm. Percentage growth inhibition was determined at a fixed drug concentration of 25 μM. A value of 100% was indicative of complete cell growth inhibition. Those analogues showing appreciable percentage growth inhibition underwent further dose-response analysis allowing for the calculation of a GI50 value. This value is the drug concentration at which cell growth is 50% inhibited based on the difference between the optical density values on day 0 and those at the end of drug exposure.

H460 (lung) cancer cells = experiment: MTT growth inhibition assay, H460; format: cell-based; conditions: 72 h, ± standard error, read-out: Growth Inhibition Concentration, GI50
Method: as §1, §3, §4, §5

[4] = system: Du145 (prostate) cancer cells; experiment: MTT growth inhibition assay, Du145; format: cell-based; conditions: 72 h, ± standard error, read-out: Growth Inhibition Concentration, GI50
Method: as §1, §3, §4, §5

[5] = system: BE2-C (neuroblastoma) cancer cells; experiment: MTT growth inhibition assay, BE2-C; format: cell-based; conditions: 72 h, ± standard error, read-out: Growth Inhibition Concentration, GI50
Method: as §1, §3, §4, §5

[6] = system: SJ-G2 (glioblastoma) cancer cells; experiment: MTT growth inhibition assay, SJ-G2; format: cell-based; conditions: for GI50: MTT, 72 h, ± standard error, read-out: Growth Inhibition Concentration, GI50
Method: as §1, §3, §4, §5

[7] = system: MIA (pancreatic) cancer cells; experiment: MTT growth inhibition assay, MIA; format: cell-based; conditions: 72 h, ± standard error, read-out: Growth Inhibition Concentration, GI50
Method: as §1, §3, §4, §5

Row | Substance | GI50 [1] | GI50 [2] | GI50 [3] | GI50 (H460 (lung) cancer cells) | GI50 [4] | GI50 [5] | greater activity than respective Schiff base ([6]; GI50 comparison) | GI50 [6] | GI50 [7]
1 | Diphenyltin(IV) [Ph2Sn(S2MoVa), Diphenyltin(IV) [S-2-Methybenzyl-β-N-(2-hydroxy-3-methoxybenzylmethylene) dithiocarbazate]] | 350 ± 50 nM | 310 ± 50 nM | 230 ± 10 nM | 2800 nM | 1700 ± 70 nM | 470 ± 50 nM | 3 fold | 840 ± 90 nM | 340 ± 20 nM
2 | Diphenyltin(IV) [Ph2Sn(S4MoVa), Diphenyltin(IV) [S-4-Methybenzyl-β-N-(2-hydroxy-3-methoxybenzylmethylene) dithiocarbazate]] | 3100 ± 370 nM | 1700 ± 490 nM | 350 ± 70 nM | 1900 ± 230 nM | 1500 ± 310 nM | 530 ± 10 nM |  | 1000 ± 160 nM | 390 ± 30 nM
